Values joined by “and” are separate entries in the source; they are usually repeats but may differ in a detail not shown here. Identical values can stand only once.
Assays:
barnyard grass (Ec) [1] = assay: Test Example 2: herbicidal effects by upland soil treatment; assay type: in vivo; design: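 0-5 growth inhibition grade; 5 = over 90%; 4 = 70-90%; 3 = 50-70%; 2 = 30-50%; 1 = 10-30%; 0 = under 10%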; conditions: dose 100 g active ingredient per 10 ares, examined on the 21st day after treatment; for herbicidal effects, Ec (barnyard grass): standards of Table 44
Outline: (§1)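 Pre-emergence test: barnyard grass and green foxtail sown in upland soil, then soil surface sprayed with wettable-powder formulation at 100 g active ingredient per 10 ares (100 l per 10 ares). Grown in greenhouse; herbicidal effect scored on a rating scale 21 days after treatment.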

monochoria (Mo) [2] = assay: Test Example 1: herbicidal effects by flooded paddy field treatment; assay type: in vivo; design: herbicidal effects, Mo (monochoria):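 0-5 growth inhibition grade; 5 = over 90%; 4 = 70-90%; 3 = 50-70%; 2 = 30-50%; 1 = 10-30%; 0 = under 10%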; conditions: for Herbicidal effect index, Mo: dose 100 gai/10a, examined on 21st day after treatment, index 0-5 per Table 44; for herbicidal effects, Mo (monochoria): dose 100 g active ingredient per 10 ares, examined on the 21st day after treatment, standards of Table 44;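 as to Herbicidal effect index, Mo: 0-5 growth inhibition grade; 5 = over 90%; 4 = 70-90%; 3 = 50-70%; 2 = 30-50%; 1 = 10-30%; 0 = under 10%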
Outline: (§2)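 Puddled paddy soil in pots, seeds sown, 3 cm flood. Day after sowing: wettable powder diluted in water, applied dropwise to water surface, 100 g a.i./10 ares. Greenhouse; visual herbicidal rating at day 21 post-treatment.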

green foxtail (Se) = assay: Test Example 2: herbicidal effects by upland soil treatment; assay type: in vivo; conditions: dose 100 g active ingredient per 10 ares, examined on the 21st day after treatment, standards of Table 44;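 also: 0-5 growth inhibition grade; 5 = over 90%; 4 = 70-90%; 3 = 50-70%; 2 = 30-50%; 1 = 10-30%; 0 = under 10%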
Outline: as §1

barnyard grass (Eo) [3] = assay: Test Example 1: herbicidal effects by flooded paddy field treatment; assay type: in vivo; design: herbicidal effects, Eo (barnyard grass):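 0-5 growth inhibition grade; 5 = over 90%; 4 = 70-90%; 3 = 50-70%; 2 = 30-50%; 1 = 10-30%; 0 = under 10%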; conditions: for Herbicidal effect index, Eo: dose 100 gai/10a, examined on 21st day after treatment, index 0-5 per Table 44; for herbicidal effects, Eo (barnyard grass): dose 100 g active ingredient per 10 ares, examined on the 21st day after treatment, standards of Table 44;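 as to Herbicidal effect index, Eo: 0-5 growth inhibition grade; 5 = over 90%; 4 = 70-90%; 3 = 50-70%; 2 = 30-50%; 1 = 10-30%; 0 = under 10%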
Outline: as §2

barnyard grass (Ec) [4] = assay: Test Example 3: herbicidal effects by foliage treatment in upland field; assay type: in vivo; design: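 0-5 growth inhibition grade; 5 = over 90%; 4 = 70-90%; 3 = 50-70%; 2 = 30-50%; 1 = 10-30%; 0 = under 10%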; conditions: dose 100 g active ingredient per 10 ares, examined on the 14th day after treatment
Outline: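 Barnyard grass and green foxtail were grown in upland soil for 2 weeks in a greenhouse. A water-diluted wettable powder was sprayed over the foliage at 100 l per 10 ares, giving 100 g active ingredient per 10 ares. Herbicidal effect was scored on day 14 after treatment.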

monochoria (Mo) [5] = assay: Test Example 4: selectivity for a crop plant by flooded paddy field treatment; assay type: in vivo; design: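 0-5 growth inhibition grade; 5 = over 90%; 4 = 70-90%; 3 = 50-70%; 2 = 30-50%; 1 = 10-30%; 0 = under 10%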; conditions: monochoria, dose 25 gai/10a, 21st day after treatment, index per Table 44
Outline: (§3)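 Flooded paddy pots, 3 cm water; weeds sown from seed, rice transplanted at 2nd-leaf stage. Day after: wettable powder diluted in water, applied dropwise to water surface, 25 g a.i./10 a. Greenhouse; herbicidal effect rated at day 21.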

barnyard grass (Eo) [6] = assay: as above; assay type: in vivo; design: scale not given here; conditions: barnyard grass, dose 25 gai/10a, 21st day after treatment, index per Table 44
Outline: as §3

rice (Or) = assay: as above; assay type: in vivo; design: scale not given here; conditions: rice transplanted at second leaf stage, dose 25 gai/10a, 21st day after treatment, index per Table 44
Outline: as §3

melting point	SMILES	herbicidal effects, Ec (barnyard grass) (barnyard grass (Ec) [1])	Herbicidal effect index, Mo (monochoria (Mo) [2])	herbicidal effects, Se (green foxtail) (green foxtail (Se))	Herbicidal effect index, Eo (barnyard grass (Eo) [3])	Ec (herbicidal effects, index) (barnyard grass (Ec) [4])	Ec (herbicidal effects, index) (barnyard grass (Ec) [1])	herbicidal effects, Mo (monochoria) (monochoria (Mo) [2])	herbicidal effects, Eo (barnyard grass) (barnyard grass (Eo) [3])	Mo (herbicidal effect index) (monochoria (Mo) [5])	Eo (herbicidal effect index) (barnyard grass (Eo) [6])	Or (herbicidal effect index on crop) (rice (Or))
95 to 98 °C and 95 to 96 °C	CC(C)C(c1cncnc1C(F)(F)F)N(C)C(=O)N(C)Cc1ccc(Cl)cc1 (centres unmarked) [Compound 1-532, 1-(4-chlorobenzyl)-1,3-dimethyl-3-[2-methyl-1-(4-trifluoromethyl-pyrimidin-5-yl)-propyl]-urea]					5	5	5	5	5	5	1
80 to 81 °C	CC(C)C(c1cncnc1C#N)N(C)C(=O)Cc1ccccc1 (centres unmarked) [Compound 1-504, N-[1-(4-cyanopyrimidin-5-yl)-2-methylpropyl]-N-methylphenylacetamide]					5	5	5	5	5	5	1

The remaining lines, values behind:

SMILES	melting point	herbicidal effects, Ec (barnyard grass) (barnyard grass (Ec) [1])	Herbicidal effect index, Mo (monochoria (Mo) [2])	herbicidal effects, Se (green foxtail) (green foxtail (Se))	Herbicidal effect index, Eo (barnyard grass (Eo) [3])	Ec (herbicidal effects, index) (barnyard grass (Ec) [4])	Ec (herbicidal effects, index) (barnyard grass (Ec) [1])	herbicidal effects, Mo (monochoria) (monochoria (Mo) [2])	herbicidal effects, Eo (barnyard grass) (barnyard grass (Eo) [3])	Mo (herbicidal effect index) (monochoria (Mo) [5])	Eo (herbicidal effect index) (barnyard grass (Eo) [6])	Or (herbicidal effect index on crop) (rice (Or))
COCN(C(=O)Cc1ccc(Cl)cc1)C(c1cncnc1C(F)(F)F)C(C)C (centres unmarked) [Compound 1-105, N-methoxymethyl-N-[2-methyl-1-(4-trifluoromethylpyrimidin-5-yl)propyl]-4-chlorophenylacetamide]	142 to 145 °C	5	5	5	5							
CC(C)C(c1cncnc1C(F)(F)F)N(C)C(=O)Cc1ccccc1 (centres unmarked) [Compound 1-8, N-methyl-N-[2-methyl-1-(4-trifluoromethylpyrimidin-5-yl)propyl]phenylacetamide]	106 to 109 °C	5	5	5	5	5						
CC(C)C(c1cncnc1C(F)(F)F)N(C)C(=O)N(C)c1ccccc1 (centres unmarked) [Compound 1-424, 1,3-dimethyl-1-[2-methyl-1-(4-trifluoromethyl-pyrimidin-5-yl)-propyl]-3-phenylurea]	104 to 105 °C					4	5	5	5			
CC(C)C(c1cncnc1C(F)(F)F)N(C)C(=S)Cc1ccccc1 (centres unmarked) [Compound 1-142, N-methyl-N-[2-methyl-1-(4-trifluoromethylpyrimidin-5-yl)propyl]phenylthioacetamide]	93 to 94 °C	5		5		4		5	5			
